We go through 31 compounds from ChEMBL document CHEMBL4665774, “Design, synthesis and biological evaluation of triaryl compounds as novel 20S proteasome inhibitors” (Bioorg Med Chem Lett, 2020).

A value given as a limit tells only on which side of the number the result lay.

Experiment [1] concerns the target T1, Proteasome Macropain subunit MB1 (Homo sapiens) (UniProt P28074).
T1 sequence (whole entry): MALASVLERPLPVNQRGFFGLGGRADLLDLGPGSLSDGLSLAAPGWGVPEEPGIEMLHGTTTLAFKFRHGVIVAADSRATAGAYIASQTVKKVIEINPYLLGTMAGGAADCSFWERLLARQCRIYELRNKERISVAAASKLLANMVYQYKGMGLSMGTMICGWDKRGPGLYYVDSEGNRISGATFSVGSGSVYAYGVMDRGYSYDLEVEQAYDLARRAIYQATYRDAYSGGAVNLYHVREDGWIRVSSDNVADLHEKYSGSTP
Nature of the experiment: Inhibition of human 20S proteasome beta 5 at 10 uM relative to control.

A further experiment is filed under the species Homo sapiens. Nature of the experiment: Inhibition of human 20S proteasome beta 5i subunit at 10 microM relative to control.
For another experiment, the system named is MDA-MB-468. Put plainly: Antiproliferative activity against human MDA-MB-468 cells assessed as reduction in cell viability by SRB assay.
In experiment [2] the target is T2, Proteasome Macropain subunit MB1 (Homo sapiens, UniProt P28074).
T2 sequence (P28074 whole entry): T1 sequence (whole entry)
Put plainly: Inhibition of human 20S proteasome beta 5.

In the case of `CCCc1ccc(OCC(=O)N(Cc2cncc(-c3cncnc3)c2)C(C)C)cc1`, in experiment [1], the inhibition (commonly the change of the read-out against control, counted positive when it falls) was below 30%. Regarding `CCCc1ccc(OCC(=O)N(Cc2nc(-c3cccs3)no2)C(C)C)cc1`, the inhibition in the experiment filed under Homo sapiens came to 25.3%. In addition, the IC50 (commonly the concentration that inhibits the measured activity by half) is 27 µM with MDA-MB-468 and 0.18 µM in experiment [2]. For `CC(C)N(Cc1nc(-c2cccs2)no1)C(=O)c1cc2ccccc2o1`, the figures for the IC50 (in the experiment with MDA-MB-468; in experiment [2]) were above 40 µM and 0.39 µM, respectively.

As to `CC(C)N(Cc1nc(-c2ccc3ccccc3n2)no1)C(=O)c1cc2ccccc2o1`, the inhibition in experiment [1] was below 30%.

Turning to `CC(C)N(Cc1nc(-c2ccco2)no1)C(=O)COc1ccc(Oc2ccccc2)cc1`, in experiment [2], the IC50 was 14.7 µM.

On to `CCCc1ccc(OCC(=O)N(Cc2nc(-c3ccc4ccccc4n3)no2)C(C)C)cc1`, for which the 50% inhibitory concentration (IC50) in the experiment with MDA-MB-468 came out at 35 µM; in experiment [2] it was 0.88 µM. In the same order, the values of `CC(C)N(Cc1cccc(-c2cccs2)c1)C(=O)c1ccc2ccccc2n1` are 31.9 µM and 3.36 µM.

Turning to `CC(C)N(Cc1nc(-c2ccco2)no1)C(=O)c1cc2ccccc2o1`, the IC50 with MDA-MB-468 was above 40 µM; in experiment [2], 0.61 µM. As to `CC(C)N(Cc1nc(-c2ccco2)no1)C(=O)c1ccc2ccccc2n1`, the inhibition in experiment [1] is below 30%.

`CC(C)N(Cc1cccc(-c2cccs2)c1)C(=O)c1cc2ccccc2o1` had an inhibition in experiment [1] below 30%.

In turn, `CC(C)N(Cc1cccc(-c2cncnc2)c1)C(=O)c1cc2ccccc2o1` came in with an inhibition in experiment [1] below 30%. For the compound `CC(C)N(Cc1ccc(-c2cccnc2)cc1)C(=O)COc1ccc(Oc2ccccc2)cc1`, the values for the IC50 (with MDA-MB-468; in experiment [2]) were above 40 µM and 1.37 µM, respectively.

For the compound `CC(C)N(Cc1cccc(-c2ccco2)c1)C(=O)c1ccc2ccccc2n1`, in experiment [2], inhibition was half-maximal at 61.6 µM (IC50). Turning to `CC(C)N(Cc1nc(-c2ccc3ccccc3c2)no1)C(=O)c1cc2ccccc2o1`, the inhibition in experiment [1] is below 30%. Same read-out and setting: next, `CC(C)N(Cc1nc(-c2ccco2)no1)C(=O)c1cnc2ccccc2n1`: below 30%. Take `CCCc1ccc(OCC(=O)N(Cc2cccc(-c3cccs3)c2)C(C)C)cc1`: inhibition in experiment [2] was half-maximal at 9.45 µM (IC50). On to `CC(C)N(Cc1ccc(-c2cccs2)cc1)C(=O)COc1ccc(Oc2ccccc2)cc1`, for which, in experiment [1], the inhibition was below 30%. As to `CC(C)N(Cc1cccc(-c2ccco2)c1)C(=O)c1cc2ccccc2o1`, in experiment [2], the IC50 was 47.3 µM. Regarding `CCCc1ccc(OCC(=O)N(Cc2nc(-c3cccnc3)no2)C(C)C)cc1`, the IC50 in the experiment with MDA-MB-468 turned out to be 7.6 µM. Regarding `CCCc1ccc(OCC(=O)N(Cc2cccc(-c3cncnc3)c2)C(C)C)cc1`, the IC50 amounted to 30.2 µM in the experiment with MDA-MB-468 and 2.27 µM in experiment [2]. `CCCc1ccc(OCC(=O)N(Cc2ccc(-c3cccs3)cc2)C(C)C)cc1` registered an IC50 in experiment [2] of 33.5 µM.

Compound `CC(C)N(Cc1cncc(-c2cccnc2)c1)C(=O)c1cc2ccccc2o1` gave an inhibition in experiment [1] below 30%. For the compound `CCCc1ccc(OCC(=O)N(Cc2cccc(-c3cccnc3)c2)C(C)C)cc1`, the IC50 turned out to be 19.3 µM in the experiment with MDA-MB-468 and 1.08 µM in experiment [2].

In turn, `CC(C)N(Cc1cncc(-c2cncnc2)c1)C(=O)c1cc2ccccc2o1` showed an inhibition in experiment [1] below 30%. In turn, `CCCc1ccc(OCC(=O)N(Cc2ccc(-c3cccnc3)cc2)C(C)C)cc1` yielded an IC50 in experiment [2] of 1.14 µM.

In turn, `CCCc1ccc(OCC(=O)N(Cc2cncc(-c3cccnc3)c2)C(C)C)cc1` came in with an inhibition in experiment [1] below 30%.

Compound `CCCc1ccc(OCC(=O)N(Cc2cccc(-c3ccco3)c2)C(C)C)cc1` yielded an IC50 in experiment [2] of 10.7 µM. In experiment [2], `CCCc1ccc(OCC(=O)N(Cc2nc(-c3ccc4ccccc4c3)no2)C(C)C)cc1` showed an IC50 of 4.31 µM. In the experiment filed under Homo sapiens, `CCCc1ccc(OCC(=O)N(Cc2nc(-c3ccco3)no2)C(C)C)cc1` displayed an inhibition of 7.3%. Further, the IC50 in the experiment on MDA-MB-468 is 38.8 µM; in experiment [2], 0.12 µM.

Take `CC(C)N(Cc1cccc(-c2cccnc2)c1)C(=O)c1cc2ccccc2o1`: half-maximal inhibition in experiment [2] (IC50) was put at 20.2 µM. For the compound `CC(C)N(Cc1nc(-c2cccnc2)no1)C(=O)COc1ccc(Oc2ccccc2)cc1`, the IC50 in the experiment on MDA-MB-468 stood at 6.8 µM; in experiment [2] it was 1.61 µM.
